According to publication PMC2062997, “Effects of impaired renal function on the pharmacokinetics of raltitrexed (Tomudex ZD1694)” (British Journal of Cancer, 1998):

Tests used:
[1] = Single-dose plasma pharmacokinetics of raltitrexed in cancer patients (radioimmunoassay, three-compartment model); format: in vivo, human
Procedure: British Journal of Cancer (1 998) 78(9). 1188-1193 C 1998 Cancer Research Campaign Effects of impaired renal function on the pharmacokinetics of raltitrexed (Tomudex ZDI 694) I Judson', T Maughan2, P Beale', J Primrose3, P Hoskin4, J HanweIll, C Berry1, M Walker5 and F Sutcliffe5 lInstitute of Cancer Research. Sutton, Surrey SM2 5NG, UK; Welindre Hospital, Whitchurch. Cardiff CF4, UK; 3Souftampton General Hospital, Southampton S09 4XY. UK: 'Mount Vernon Hospital, Middlesex HA6 2RN. UK; 5Zeneca Pharmaceutcals Macclesfield. Cheshire SK10 4TG. UK Summary This open-label, non-randomized, parallel-group trial investigated the pharmacokinetics of raltitrexed (Tomudex, formerly ZD1 694) after a single intravenous dose of 3.0 mg m-2, comparing eight cancer patients with mild to moderate renal impairment (creatinine clearance 25-65 ml min-') with eight cancer patients with normal renal function (creatinine clearance >65 ml min-'). The primary end points were area under the plasma raltitrexed concentration-vime curve from the start of the infusion to the last determined concentration (AUCo_) and AUC to infinity (AUCo); secondary end points were peak corncentrations of ralftitrexed (C,n,) and elimination half-life (t,>). The groups were compared statistically using analysis of covariance. The AUCs were greater for patients with renal impairment than for patients with normal renal function (2452.2 compared with 1247.3 ng h ml-' for AUCo._. (ratio 1.97; 95% Cl 1.36-2.84); 2961.5 compared with 1457.0 ng h ml-' for AUCo_ (ratio 2.03; 1.25-3.29). These differences were statistically significant (P = 0.002 and P = 0.008 for AUC, and AUCo_ respectively. Terminal half-life was longer for the renally impaired patients (271.2 compared with 143.3; P = 0.030). There was no significant statistical difference between the groups for C, (652.9 compared with 564.7 ng ml-' for patients with impaired and normal renal function respectively: ratio 1.16; 0.91-1.46; P=0.204). There was a clear relationship between raltfitrexed clearance and creatinine clearance. Adverse events, severe (WHO grade 3 or 4) toxicity and hospitalization due to adverse events were more frequent in the group with renal impairment. Therefore, a reduction in ralftitrexed dose and increased interval between doses is recommended for patients with mild to moderate renal impairment. Keywords: pharmacokinetics; thymidylate synthase; phase I trial; raltitrexed; renal impairment Raltitrexed (Tomudex. ZD1694: Zeneca Limited) is a cytotoxic agent w-hich acts by direct and specific inhibition of thymidydlate synthase. the enzyme catalysing a critical step in de novo DNA synthesis. i.e. the production of thymidine monophosphate from deoxvuridine monophosphate. Some clinically effective anti- cancer agents. such as 5-fluorouracil and methotrexate. act in part by inhibiting thymidylate synthase but also have effects on other enzyme pathways. xvhich may contribute to their anti-tumour activity and obserned toxicity profiles. Raltitrexed inhibits thymidylate synthase selectively in vitro (Jackman et al. 1991). […] The poly- glutamates are retained in cells and cause prolonged inhibition of th midv late synthase. which leads to DNA fragmentation and cell death. […] The mean apparent half-life of the terminal (gamma) phase (tl, ,) was 50-lOO h (Clarke et al. 1996). This prolonged t1, may represent hydrolysis of the polvalutamated Received 17 November 1997 Revised 4 Apnl 1998 Accepted 14 Apnl 1998 Correspondence to: IR Judson, CRC Centre for Cancer Therapeutics. The Institute of Cancer Research. Block E. 15 Cotswold Road. Belmont. Sutton. Surrey SM2 5NG. UK forms and release of raltitrexed from tissues into the circulation. and allow s the druc to be administered as a single dose once ev er 3 weeks. In the phase I trial. a dose and schedule of 3.0mg m-' every 3 weeks was identified as suitable for phase H inxvestigation. […]

[2] = Safety: adverse events and WHO-graded toxicity in cancer patients; format: in vivo
Procedure: British Journal of Cancer (1 998) 78(9). 1188-1193 C 1998 Cancer Research Campaign Effects of impaired renal function on the pharmacokinetics of raltitrexed (Tomudex ZDI 694) I Judson', T Maughan2, P Beale', J Primrose3, P Hoskin4, J HanweIll, C Berry1, M Walker5 and F Sutcliffe5 lInstitute of Cancer Research. Sutton, Surrey SM2 5NG, UK; Welindre Hospital, Whitchurch. Cardiff CF4, UK; 3Souftampton General Hospital, Southampton S09 4XY. UK: 'Mount Vernon Hospital, Middlesex HA6 2RN. UK; 5Zeneca Pharmaceutcals Macclesfield. Cheshire SK10 4TG. UK Summary This open-label, non-randomized, parallel-group trial investigated the pharmacokinetics of raltitrexed (Tomudex, formerly ZD1 694) after a single intravenous dose of 3.0 mg m-2, comparing eight cancer patients with mild to moderate renal impairment (creatinine clearance 25-65 ml min-') with eight cancer patients with normal renal function (creatinine clearance >65 ml min-'). The primary end points were area under the plasma raltitrexed concentration-vime curve from the start of the infusion to the last determined concentration (AUCo_) and AUC to infinity (AUCo); secondary end points were peak corncentrations of ralftitrexed (C,n,) and elimination half-life (t,>). The groups were compared statistically using analysis of covariance. The AUCs were greater for patients with renal impairment than for patients with normal renal function (2452.2 compared with 1247.3 ng h ml-' for AUCo._. (ratio 1.97; 95% Cl 1.36-2.84); 2961.5 compared with 1457.0 ng h ml-' for AUCo_ (ratio 2.03; 1.25-3.29). These differences were statistically significant (P = 0.002 and P = 0.008 for AUC, and AUCo_ respectively. Terminal half-life was longer for the renally impaired patients (271.2 compared with 143.3; P = 0.030). There was no significant statistical difference between the groups for C, (652.9 compared with 564.7 ng ml-' for patients with impaired and normal renal function respectively: ratio 1.16; 0.91-1.46; P=0.204). There was a clear relationship between raltfitrexed clearance and creatinine clearance. Adverse events, severe (WHO grade 3 or 4) toxicity and hospitalization due to adverse events were more frequent in the group with renal impairment. Therefore, a reduction in ralftitrexed dose and increased interval between doses is recommended for patients with mild to moderate renal impairment. Keywords: pharmacokinetics; thymidylate synthase; phase I trial; raltitrexed; renal impairment Raltitrexed (Tomudex. ZD1694: Zeneca Limited) is a cytotoxic agent w-hich acts by direct and specific inhibition of thymidydlate synthase. the enzyme catalysing a critical step in de novo DNA synthesis. i.e. the production of thymidine monophosphate from deoxvuridine monophosphate. […]

Question: What does the source list for `Cc1nc2ccc(CN(C)c3ccc(C(=O)N[C@@H](CCC(=O)O)C(=O)O)s3)cc2c(=O)[nH]1` [raltitrexed]?
Answer: Cmax estimated ratio (impaired:normal renal function) ([1]; 95% CI 0.91-1.46, P = 0.204): 1.16; AUC0-infinity estimated ratio (impaired:normal renal function) ([1]; 95% CI 1.25-3.29, P = 0.008): 2.03; AUC0-tldc estimated ratio (impaired:normal renal function) ([1]; 95% CI 1.36-2.84, P = 0.002): 1.97; AUC ([1]; both sexes, human, in vivo, AUC0-tldc, adjusted geometric least squares mean): 2450 ng·h/mL; Cmax ([1]; both sexes, human, in vivo, Cmax, adjusted geometric least squares mean): 565 ng/mL; Cmax ([1]; both sexes, human, in vivo, iv, 3 mg, Cmax (mean; SD)): 676 ng/mL; Tmax ([1]; both sexes, human, in vivo, iv, tmax (median and range)): 0.267 h; half-life ([1]; both sexes, human, in vivo, t1/2 gamma (terminal half-life), adjusted least squares mean): 271 h; Cmax, adjusted geometric least squares mean ([1]; both, human, in vivo): 652.9 ng/mL; t1/2 gamma (terminal half-life), adjusted least squares mean ([1]; both, human, in vivo): 143.3 h; tmax (median and range) ([1]; both, human, in vivo, iv): 20 (10-30) min; Cmax (mean; SD) ([1]; human, in vivo, iv, 3 mg): 567.1 ? 62.7 ng ml-1; Pain, number of patients ([2]; both, human, in vivo): 3 patients; WHO grade 3 or 4 drug-related toxicity ([2]; both, human, in vivo): No WHO grade 3 or 4 drug-related toxicity was reported; WHO grade 3 or 4 toxicity ([2]; both, human, in vivo): grade 3 or 4 toxicity was observed; Serious adverse events ([2]; renally impaired patient: Cr-EDTA clearance 28, calculated creatinine clearance 23.2 ml min-1): Death
